# In patent US20260207602A1, “EGFR INHIBITORS” (Blueprint Medicines Corporation, priority 2022, published 2026):
# What was measured:
# EGFR M+ NSCLC patients = conditions: first line (1L), NSCLC harboring del19 and L858R mutations; cited from earlier work
# EGFR L858R = molecular target: T1, EGFR L858R (Homo sapiens, UniProt P00533, L858R); assay: Biochemical EGFR inhibition assay (Caliper mobility shift), EGFR L858R; conditions: biochemical Caliper mobility shift assay, EGFR L858R enzyme; read-out: Enz EGFR L858R IC50
# T1 construct: purchased SignalChem E10-122BG
# Outline: (§1)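 Apparent IC50 from Caliper separation of phospho-peptide from substrate. Conditions: 2.5 µM 5-FAM peptide, 1.0 mM ATP or ATP Km, pH 7.5 HEPES buffer, room temperature, 10–20% conversion, EDTA stop.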
# EGFR (d746-750) = molecular target: T2, EGFR (d746-750) (Homo sapiens, UniProt P00533, DEL746-750); assay: Biochemical EGFR inhibition assay (Caliper mobility shift), EGFR (d746-750); conditions: biochemical Caliper mobility shift assay, EGFR Exon 19-del enzyme; read-out: Enz EGFR Exon 19-del IC50
# T2 construct: purchased SignalChem E10-122JG
# Outline: as §1
# [1] = molecular target: intracellular phosphorylation of EGFR (Tyr1068) in PC-9 cells (Homo sapiens, UniProt P00533, DEL746-750); assay: PC-9 pEGFR AlphaLISA assay; assay type: cell-based; conditions: 4 hours incubation, read-out: Phos EGFR PC9 IC50
# Outline: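 PC-9 cells (EGFR del746-750) in phenol-free DMEM/10% FBS, adhered overnight, then exposed to 10-point 4-fold compound dilutions for 4 h at 37 °C. Lysates assayed for pEGFR Tyr1068 by AlphaLISA SureFire Ultra; IC50 from percent pEGFR inhibition vs log concentration.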
# Chain of intracellular phosphorylation of EGFR (Tyr1068) in PC-9 cells (P00533 with tags, fused parts or gaps DEL746-750): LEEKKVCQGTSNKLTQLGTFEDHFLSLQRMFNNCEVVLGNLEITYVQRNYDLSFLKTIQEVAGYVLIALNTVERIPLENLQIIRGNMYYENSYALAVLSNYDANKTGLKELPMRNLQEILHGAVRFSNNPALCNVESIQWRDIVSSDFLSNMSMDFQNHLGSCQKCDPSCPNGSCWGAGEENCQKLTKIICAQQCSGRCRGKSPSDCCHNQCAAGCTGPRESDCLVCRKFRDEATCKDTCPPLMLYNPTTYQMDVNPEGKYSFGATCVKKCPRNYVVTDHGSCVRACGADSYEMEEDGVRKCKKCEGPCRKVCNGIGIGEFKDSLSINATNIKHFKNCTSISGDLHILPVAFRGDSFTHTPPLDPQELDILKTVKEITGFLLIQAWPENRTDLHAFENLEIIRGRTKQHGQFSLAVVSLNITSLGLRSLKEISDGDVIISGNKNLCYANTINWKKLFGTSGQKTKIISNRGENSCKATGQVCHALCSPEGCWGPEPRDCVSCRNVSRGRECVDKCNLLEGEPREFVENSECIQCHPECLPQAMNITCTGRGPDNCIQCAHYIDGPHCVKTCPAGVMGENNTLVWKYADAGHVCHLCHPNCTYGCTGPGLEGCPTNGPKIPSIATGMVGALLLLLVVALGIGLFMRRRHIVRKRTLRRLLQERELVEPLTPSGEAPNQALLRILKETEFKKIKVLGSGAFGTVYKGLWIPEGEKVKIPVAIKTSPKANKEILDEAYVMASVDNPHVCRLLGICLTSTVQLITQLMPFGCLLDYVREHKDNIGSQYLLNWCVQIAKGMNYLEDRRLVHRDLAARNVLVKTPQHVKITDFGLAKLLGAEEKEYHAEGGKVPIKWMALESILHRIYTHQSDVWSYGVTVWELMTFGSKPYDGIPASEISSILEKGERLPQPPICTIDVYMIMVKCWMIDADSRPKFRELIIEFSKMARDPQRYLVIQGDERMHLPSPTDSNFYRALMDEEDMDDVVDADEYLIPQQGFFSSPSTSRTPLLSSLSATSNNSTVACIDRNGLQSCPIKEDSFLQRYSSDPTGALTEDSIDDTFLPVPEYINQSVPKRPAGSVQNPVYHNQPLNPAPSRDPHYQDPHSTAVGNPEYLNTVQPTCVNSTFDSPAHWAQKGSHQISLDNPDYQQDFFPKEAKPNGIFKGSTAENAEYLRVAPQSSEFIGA
# T2 sequence (P00533 with tags, fused parts or gaps DEL746-750 limits assumed): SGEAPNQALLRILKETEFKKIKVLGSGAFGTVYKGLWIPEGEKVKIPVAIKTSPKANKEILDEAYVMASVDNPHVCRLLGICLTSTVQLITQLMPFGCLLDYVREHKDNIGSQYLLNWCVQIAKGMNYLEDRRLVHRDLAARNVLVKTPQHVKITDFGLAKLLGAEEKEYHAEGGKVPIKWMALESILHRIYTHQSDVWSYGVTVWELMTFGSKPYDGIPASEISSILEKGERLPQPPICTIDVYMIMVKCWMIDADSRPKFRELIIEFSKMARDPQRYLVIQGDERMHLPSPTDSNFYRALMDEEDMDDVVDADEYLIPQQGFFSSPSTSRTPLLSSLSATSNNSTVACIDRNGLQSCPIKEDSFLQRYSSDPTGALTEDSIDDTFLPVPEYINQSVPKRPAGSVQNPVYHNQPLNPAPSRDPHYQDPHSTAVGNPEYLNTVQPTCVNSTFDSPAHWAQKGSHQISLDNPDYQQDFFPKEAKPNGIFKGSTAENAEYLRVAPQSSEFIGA
# T1 sequence (P00533 25-1210 L858R): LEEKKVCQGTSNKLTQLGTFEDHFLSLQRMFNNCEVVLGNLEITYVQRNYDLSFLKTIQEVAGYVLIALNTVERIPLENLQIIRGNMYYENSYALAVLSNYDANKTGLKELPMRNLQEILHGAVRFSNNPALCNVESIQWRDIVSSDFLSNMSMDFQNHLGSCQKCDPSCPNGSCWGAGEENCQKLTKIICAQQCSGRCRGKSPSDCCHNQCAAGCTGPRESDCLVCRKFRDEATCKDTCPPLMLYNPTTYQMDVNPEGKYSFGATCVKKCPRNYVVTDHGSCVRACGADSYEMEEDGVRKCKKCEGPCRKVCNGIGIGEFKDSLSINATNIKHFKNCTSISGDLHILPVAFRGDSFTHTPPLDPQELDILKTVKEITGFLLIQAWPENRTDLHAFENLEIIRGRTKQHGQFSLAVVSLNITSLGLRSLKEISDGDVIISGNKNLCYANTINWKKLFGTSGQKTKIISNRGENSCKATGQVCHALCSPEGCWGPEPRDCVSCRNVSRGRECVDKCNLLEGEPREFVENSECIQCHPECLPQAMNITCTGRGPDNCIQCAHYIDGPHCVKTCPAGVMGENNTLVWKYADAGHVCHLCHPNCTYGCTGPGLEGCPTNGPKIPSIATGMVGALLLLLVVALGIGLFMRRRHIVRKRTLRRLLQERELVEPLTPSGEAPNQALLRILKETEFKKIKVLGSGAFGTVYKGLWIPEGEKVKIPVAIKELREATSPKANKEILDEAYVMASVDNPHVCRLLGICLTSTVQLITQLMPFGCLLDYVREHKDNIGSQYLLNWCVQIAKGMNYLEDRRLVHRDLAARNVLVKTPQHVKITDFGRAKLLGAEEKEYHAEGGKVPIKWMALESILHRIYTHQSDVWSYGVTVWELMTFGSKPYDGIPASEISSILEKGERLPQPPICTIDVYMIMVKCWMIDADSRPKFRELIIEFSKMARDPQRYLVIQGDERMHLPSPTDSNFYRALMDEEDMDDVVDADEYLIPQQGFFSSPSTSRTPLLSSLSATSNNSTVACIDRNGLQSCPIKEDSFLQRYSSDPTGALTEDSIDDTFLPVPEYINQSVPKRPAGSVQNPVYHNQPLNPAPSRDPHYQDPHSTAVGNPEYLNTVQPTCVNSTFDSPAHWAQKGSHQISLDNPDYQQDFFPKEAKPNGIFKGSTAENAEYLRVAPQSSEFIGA
SMILES,IC50 (EGFR L858R) [nM],IC50 (EGFR (d746-750)) [nM],IC50 [1] [nM],progression-free survival (PFS) (EGFR M+ NSCLC patients) [mo]
C=CC(=O)Nc1cc(Nc2nccc(-c3cn(C)c4ccccc34)n2)c(OC)cc1N(C)CCN(C)C [Osimertinib],–,–,–,18.9
"C[C@@H](CN(C)C)Oc1cc(N2CCN(C)CC2)cc2ncnc(Nc3ccc4ncsc4c3)c12 (single isomer, unassigned) [Example 117]",10.1 to 50,10.1 to 50,10.1 to 50,–
"COc1cc2ncnc(Nc3ccc4ncsc4c3)c2cc1-c1cnn([C@@H]2CCN(C)C[C@@H]2F)c1 (racemic) [Example 165, cis-N-(6-(1-((3R,4S)-3-fluoro-1-methylpiperidin-4-yl)-1H-pyrazol-4-yl)-7-methoxyquinazolin-4-yl)benzo[d]thiazol-6-amine]",≤ 10,≤ 10,≤ 10,–
"Cn1cc(-c2cc(OC3CCCOC3)c3c(Nc4ccc5ncsc5c4)ncnc3c2)cn1 (single isomer, unassigned) [Example 6]",≤ 10,≤ 10,≤ 10,–

# Now from value to molecule, other results behind:
IC50 (EGFR L858R) [nM],IC50 (EGFR (d746-750)) [nM],IC50 [1] [nM],SMILES,progression-free survival (PFS) (EGFR M+ NSCLC patients) [mo]
10.1 to 50,≤ 10,≤ 10,"CNC[C@@H](C)Oc1cc(-c2cnn(C)c2)cc2ncnc(Nc3ccc4ncsc4c3)c12 [Example 396, (R)-N-(7-(1-methyl-1H-pyrazol-4-yl)-5-((1-(methylamino)propan-2-yl)oxy)quinazolin-4-yl)benzo[d]thiazol-6-amine]",–
≤ 10,≤ 10,≤ 10,"COc1nn(C)cc1-c1cc(O[C@H](C)C2COC2)c2c(Nc3ccc4ncsc4c3)ncnc2c1 (single isomer, unassigned) [Example 170]",–
